Measurements from US20110098296A1, “Thiazole And Oxazole Kinase Inhibitors” (priority 2007, published 2011).
Counter-ions that a name gives are not always drawn.

Assays:
[1] = target: T1, EGFR (Homo sapiens, UniProt P00533); assay: EGFR substrate phosphorylation assay (HTRF); assay type: biochemical; conditions: Method (A): Enzyme Mix incubated with compound at 20° C. for 1 hr, reaction started by adding Substrate Mix
T1 construct: made in house; host or cells: baculovirus expression system
Procedure: (§1) Compounds of the present invention were tested for EGFR and ErbB-2 protein tyrosine kinase inhibitory activity in substrate phosphorylation assays using enzymes purified from a baculovirus expression system. Reagent production was conducted essentially as described in Brignola, P. S., et al., (2002) J. Biol. Chem. 277(2):1576-1585.
(§2) The method measures the ability of the isolated enzyme to catalyse the transfer of the gamma-phosphate from ATP onto the tyrosine residue of a biotinylated synthetic peptide referenced “Peptide C” in Brignola, P. S., et al., (2002) J. Biol. Chem. 277(2):1576-1585. The extent of tyrosine phosphorylation was measured using an anti-phosphotyrosine antibody, and quantified by homogenous time-resolved fluorescence (HTRF).
(§3) Reactions were performed in black 384-well polystyrene flat-bottom plates in a final volume of 20 μl. Assays were performed by adding 10 μl of each of the following solutions, Substrate Mix and Enzyme Mix: The Substrate Mix contained 100 mM 3-[N-morpholino]propanesulfonic acid (MOPS) (pH 7.5), 2 mM MnCl2, 20 μM ATP, 0.01% Tween-20, 0.1 mg/mL (BSA), 0.8 uM peptide substrate, and 1 mM dithiothreitol. The Enzyme Mix contained 100 mM MOPS (pH 7.5); 0.01% Tween-20; 0.1 mg/mL BSA, and either 0.8 nM EGFR, 10 nM ErbB2, or 1 nM ErbB4
(§4) During the course of these studies, two separate methods have been used to measure the potency of compounds. In Method A (indicated as “(A)” in the tables below), the Enzyme Mix was added to the compound plates and the plates were incubated at 20° C. for 1 hr. The reactions were then started by adding the Substrate Mix. In Method B (indicated as “(B)” in the tables below), the Substrate Mix was added to the compound plates first, then the reaction was started by adding the Enzyme Mix.
(§5) After initiating the reaction with either method describe above, the reactions were allowed to proceed for 90 minutes at 20° C. The reactions were then terminated by the addition of 20 μL 100 mM EDTA to each well. 40 μL/well of HTRF detection mix were added to the assay plates. The final concentrations of the detection reagents were: 100 mM HEPES (pH7.5), 0.1 mg/mL BSA, 15 nM streptavidin-labeled allophycocyanin (PerkinElmer), and 1 nM europium-labeled anti-phosphotyrosine antibody (PerkinElmer). Assay plates were left unsealed and were counted in a Wallac Multilabel Counter 1420 (PerkinElmer).
(§6) Compounds under analysis were dissolved in dimethylsulfoxide (DMSO) to 1.0 mM and serially diluted 1 to 3 with DMSO through twelve dilutions. 1 μL of each concentration was transferred to the corresponding well of an assay plate. This creates a final compound concentration range from 0.00027 to 47.6 μM.
(§7) The data for dose responses were plotted as % Inhibition calculated with the data reduction formula 100*(1−(U1−C2)/(C1−C2)) versus concentration of compound where U1 is the unknown value, C1 is the average control value obtained for 4.76% DMSO, and C2 is the average control value obtained for 0.035 M EDTA. Data were fitted with a curve described by:
(§8) where Vmax is the upper asymptote, Y2 is the Y intercept, and K is the IC50. The results for each compound were recorded as pIC50s, calculated as follows: […]

[2] = target: T2, ErbB2 (Homo sapiens, UniProt P04626); assay: ErbB-2 substrate phosphorylation assay (HTRF); assay type: biochemical; conditions: Method (A): Enzyme Mix incubated with compound at 20° C. for 1 hr, reaction started by adding Substrate Mix
T2 construct: made in house; host or cells: baculovirus expression system
T2 sequence (P04626 23-1255): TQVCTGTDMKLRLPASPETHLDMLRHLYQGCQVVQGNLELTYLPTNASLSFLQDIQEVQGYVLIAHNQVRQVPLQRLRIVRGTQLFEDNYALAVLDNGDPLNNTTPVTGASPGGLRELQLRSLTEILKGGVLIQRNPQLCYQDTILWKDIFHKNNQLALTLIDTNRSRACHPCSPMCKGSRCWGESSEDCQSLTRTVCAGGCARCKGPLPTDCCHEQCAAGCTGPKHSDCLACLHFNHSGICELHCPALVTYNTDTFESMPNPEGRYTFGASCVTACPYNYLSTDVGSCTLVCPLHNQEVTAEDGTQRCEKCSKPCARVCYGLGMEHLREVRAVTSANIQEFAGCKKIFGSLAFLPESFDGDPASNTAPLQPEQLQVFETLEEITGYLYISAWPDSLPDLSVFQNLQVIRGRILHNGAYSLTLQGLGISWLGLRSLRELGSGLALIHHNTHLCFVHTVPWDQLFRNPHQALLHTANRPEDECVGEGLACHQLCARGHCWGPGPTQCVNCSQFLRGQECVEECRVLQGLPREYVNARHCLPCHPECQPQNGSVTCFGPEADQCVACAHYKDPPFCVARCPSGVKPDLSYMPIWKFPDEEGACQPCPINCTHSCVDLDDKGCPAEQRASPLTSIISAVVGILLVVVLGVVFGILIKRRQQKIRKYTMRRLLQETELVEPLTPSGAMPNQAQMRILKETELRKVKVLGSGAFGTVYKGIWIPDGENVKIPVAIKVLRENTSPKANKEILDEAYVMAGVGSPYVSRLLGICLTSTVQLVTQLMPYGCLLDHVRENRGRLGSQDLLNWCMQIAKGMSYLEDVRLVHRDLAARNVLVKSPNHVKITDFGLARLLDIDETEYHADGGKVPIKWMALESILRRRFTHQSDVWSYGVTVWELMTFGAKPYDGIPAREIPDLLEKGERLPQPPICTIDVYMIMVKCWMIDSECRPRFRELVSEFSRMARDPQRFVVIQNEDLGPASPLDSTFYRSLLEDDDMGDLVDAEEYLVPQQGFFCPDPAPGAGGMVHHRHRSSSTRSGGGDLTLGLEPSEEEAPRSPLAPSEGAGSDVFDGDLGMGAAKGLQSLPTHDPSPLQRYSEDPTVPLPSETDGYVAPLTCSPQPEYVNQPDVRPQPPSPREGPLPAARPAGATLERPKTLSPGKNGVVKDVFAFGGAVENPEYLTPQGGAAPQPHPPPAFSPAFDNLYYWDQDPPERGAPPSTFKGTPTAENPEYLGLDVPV
Procedure: as §1, §2, §3, §4, §5, §6, §7, §8

[3] = test system: HN5 tumor cells; assay: Method C: Cell Growth Inhibition Assay (CellTiter-Glo), HN5; assay type: cell-based; conditions: Homo sapiens, 72 h, 3 days, 4-parameter fit
Procedure: (§9) Human breast tumor cells (BT474) were cultured in RPMI (Mediatech 50-011-PB), containing 10% FBS (JRH Biosciences 12176) and 1% penicillin-streptomycin (Invitrogen 15140). Human head and neck tumor cells (HN5) were cultured in high glucose DMEM (Mediatech 50-013-PB) containing 10% FBS and 1% penicillin-streptomycin. Human colon tumor cells (Colo205) were cultured in RPMI (Mediatech 50-020-PB) containing 10% FBS and 1% penicillin-streptomycin. Human melanoma cancer cells (SK-MEL-28) were cultured in EMEM with nonessential amino acids (Mediatech 50-011-PB) containing 10% FBS, 1% sodium pyruvate (JT Baker 3354-04), and 1% penicillin-streptomycin. Human melanoma cancer cells (A375P F11s) were cultured in RPMI (Mediatech 50-020-PB) containing 10% FBS, 1% sodium pyruvate, and 1% penicillin-streptomycin. Human colon cancer cells (HT-29) were cultured in high glucose DMEM (Mediatech 50-013-PB) containing 10% FBS and 1% penicillin-streptomycin. Human melanoma cancer cells (SK-MEL-3) were cultured in McCoy's 5A (50-025-PB) containing 15% FBS, and 1% penicillin-streptomycin. All cell lines were maintained at 37° C. in a humidified 5% CO2, 95% air incubator. Cells were harvested using trypsin/EDTA (Invitrogen 25200), counted using an haemocytometer, and plated. For 96-well assays (using white full-area NUNC plates cat. #136102), cells were plated in 105 μL at the following densities (cells/well): HN5, 500; Colo205, 500; SK-MEL-28, 500; A375P-F11s, 500; HT-29, 500; SK-MEL-3, 500; and BT474, 3000. For 384-well assays (white full-area NUNC plates, cat. #781080), cells were plated in 48 μL at the following densities (cells/well): HN5, 500; Colo205, 500; SK-MEL-28, 500; A375P-F11s, 500; HT29, 500; SK-MEL-3, 500; and BT474, 2000.
(§10) The next day, compounds were diluted as follow: For 96-well assays, 13.5 μL of compound in DMSO were diluted using nine (9) serial 1:3 dilutions of 4.5 μL in 9 μL of DMSO. Medium (270 μl/well of RPMI with 10% FBS and 1% penicillin-streptomycin) was added to the plates. Aliquots (7 μl) were added to cells in the final assay giving a final DMSO concentration of 0.2%. For 384-well assays, 15 μL of compound in DMSO were diluted using nine (9) serial 1:3 dilutions of 5 μL in 10 μL of DMSO, followed by a further dilution of 5 μL of compound with 95 μL of medium, of which 2 μL were added to cells in the final assay giving a final DMSO concentration of 0.2%. Cells were incubated at 37° C., 5% CO2 for 3 days.
(§11) Total ATP was measured (as a surrogate estimate of cell number) using CellTiter-Glo® reagent (Promega G7571). Briefly, plates were removed from the incubator and allowed to equilibrate to room temperature for 30 minutes. CellTiter-Glo® (25 μL or 55 μL for 384-well or 96-well assays, respectively) reagent was added to each well and plates were shaken on an orbital plate shaker for 2 mins. Plates were incubated without shaking for a further 30 mins and read on an LJL Analyst GT reader in luminometer mode with an integration time of 0.5 seconds per well. Percent inhibition of cell growth was calculated relative to DMSO vehicle-treated control wells. Concentration of compound required to give 50% inhibition of vehicle-treated control cell growth (IC50) was interpolated using a 4-parameter fit for determining IC50 using the following equation: Y=A+((B−A)/(1+((C/X)̂D))) where X=IC50.

[4] = test system: BT474 tumor cells; assay: Method C: Cell Growth Inhibition Assay (CellTiter-Glo), BT474; assay type: cell-based; conditions: Homo sapiens, BT-474, 72 h, 3 days, 4-parameter fit
Procedure: as §9, §10, §11

[5] = test system: Colo205 tumor cells; assay: Method C: Cell Growth Inhibition Assay (CellTiter-Glo), Colo205; assay type: cell-based; conditions: Homo sapiens, COLO 205, 72 h, 3 days, 4-parameter fit
Procedure: as §9, §10, §11

[6] = test system: SK-MEL-28 tumor cells; assay: Method C: Cell Growth Inhibition Assay (CellTiter-Glo), SK-MEL-28; assay type: cell-based; conditions: Homo sapiens, SK-MEL-28, 72 h, 3 days, 4-parameter fit
Procedure: as §9, §10, §11

T1 sequence (P00533 25-1210): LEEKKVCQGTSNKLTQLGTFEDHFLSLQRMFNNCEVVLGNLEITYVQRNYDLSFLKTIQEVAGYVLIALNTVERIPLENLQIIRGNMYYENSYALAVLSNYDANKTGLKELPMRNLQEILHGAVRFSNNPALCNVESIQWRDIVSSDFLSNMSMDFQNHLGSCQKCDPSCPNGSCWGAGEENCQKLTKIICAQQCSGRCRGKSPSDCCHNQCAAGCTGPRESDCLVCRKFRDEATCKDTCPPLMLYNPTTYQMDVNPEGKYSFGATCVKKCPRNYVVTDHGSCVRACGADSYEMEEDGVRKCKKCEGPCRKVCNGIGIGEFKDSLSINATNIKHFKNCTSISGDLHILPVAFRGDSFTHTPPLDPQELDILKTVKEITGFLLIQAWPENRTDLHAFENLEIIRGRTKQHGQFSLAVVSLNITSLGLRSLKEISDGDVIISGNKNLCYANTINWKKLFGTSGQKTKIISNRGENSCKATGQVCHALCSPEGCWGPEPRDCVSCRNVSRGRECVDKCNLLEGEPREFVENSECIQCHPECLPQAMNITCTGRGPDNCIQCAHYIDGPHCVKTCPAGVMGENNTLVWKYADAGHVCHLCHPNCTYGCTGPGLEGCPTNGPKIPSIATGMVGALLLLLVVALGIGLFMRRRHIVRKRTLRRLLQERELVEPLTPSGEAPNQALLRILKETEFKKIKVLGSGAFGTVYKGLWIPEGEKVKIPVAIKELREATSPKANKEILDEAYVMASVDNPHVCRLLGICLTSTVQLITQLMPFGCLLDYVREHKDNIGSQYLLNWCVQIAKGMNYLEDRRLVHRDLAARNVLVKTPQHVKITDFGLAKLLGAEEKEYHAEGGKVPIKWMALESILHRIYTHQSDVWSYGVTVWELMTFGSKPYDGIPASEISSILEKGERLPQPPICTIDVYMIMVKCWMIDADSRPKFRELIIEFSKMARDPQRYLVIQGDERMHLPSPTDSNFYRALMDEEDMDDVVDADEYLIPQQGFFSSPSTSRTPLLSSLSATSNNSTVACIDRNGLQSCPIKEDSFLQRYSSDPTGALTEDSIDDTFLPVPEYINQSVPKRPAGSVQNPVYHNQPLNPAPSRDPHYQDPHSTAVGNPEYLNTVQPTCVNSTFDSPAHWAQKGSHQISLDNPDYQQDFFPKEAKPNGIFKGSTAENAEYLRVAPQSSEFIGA

Row | SMILES | IC50 [1] | IC50 [2] | IC50 [3] | IC50 [4] | IC50 [5] | IC50 [6]
1 | CN(C)CCOc1cccc(Nc2nccc(-c3sc(NCCCN4CCOCC4)nc3-c3cccc(NC(=O)c4c(F)cccc4F)c3)n2)c1 [Example 29, N-[3-(5-{2-[(3-{[2-(Dimethylamino)ethyl]oxy}phenyl)amino]-4-pyrimidinyl}-2-{[3-(4-morpholinyl)propyl]amino}-1,3-thiazol-4-yl)phenyl]-2,6-difluorobenzamide] | < 100 nM | < 100 nM | < 100 nM | < 100 nM | 100 to 1000 nM | > 1000 nM
2 | CCN(CC)CCOc1cccc(Nc2nccc(-c3scnc3-c3cccc(NC(=O)c4cc(F)ccc4F)c3)n2)c1 [Example 97, N-[3-(5-{2-[(3-{[2-(Diethylamino)ethyl]oxy}phenyl)amino]-4-pyrimidinyl}-1,3-thiazol-4-yl)phenyl]-2,5-difluorobenzamide] | < 100 nM | < 100 nM | 100 to 1000 nM | 100 to 1000 nM | > 1000 nM | > 1000 nM
3 | NS(=O)(=O)CCc1cccc(Nc2nccc(-c3scnc3-c3cccc(NC(=O)c4cc(F)ccc4F)c3)n2)c1 [Example 100, N-(3-{5-[2-({3-[2-(Aminosulfonyl)ethyl]phenyl}amino)-4-pyrimidinyl]-1,3-thiazol-4-yl}phenyl)-2,5-difluorobenzamide trifluoroacetate] | < 100 nM | < 100 nM | < 100 nM | < 100 nM | 100 to 1000 nM | –
4 | Cc1nc(-c2cccc(NC(=O)c3cccnc3F)c2)c(-c2ccnc(Nc3ccc4c(c3)CN(C)CC4)n2)s1 [Example 137, 2-Fluoro-N-[3-(2-methyl-5-{2-[(2-methyl-1,2,3,4-tetrahydro-7-isoquinolinyl)amino]-4-pyrimidinyl}-1,3-thiazol-4-yl)phenyl]-3-pyridinecarboxamide trifluoroacetate] | < 100 nM | < 100 nM | – | 100 to 1000 nM | > 1000 nM | > 1000 nM
5 | CN(C)CCOc1ccc(Nc2nccc(-c3sc(-c4ccc(O)cc4)nc3-c3cccc(NC(=O)c4c(F)cccc4F)c3)n2)cc1Cl [Example 139, N-{3-[5-{2-[(3-Chloro-4-{[2-(dimethylamino)ethyl]oxy}phenyl)amino]-4-pyrimidinyl}-2-(4-hydroxyphenyl)-1,3-thiazol-4-yl]phenyl}-2,6-difluorobenzamide] | < 100 nM | < 100 nM | 100 to 1000 nM | 100 to 1000 nM | 100 to 1000 nM | –
6 | CN(C)CCOc1ccc(Nc2nccc(-c3sc(-c4ccc(O)cc4)nc3-c3cccc(NC(=O)c4cc(F)ccc4F)c3)n2)cc1Cl [Example 140, N-{3-[5-{2-[(3-Chloro-4-{[2-(dimethylamino)ethyl]oxy}phenyl)amino]-4-pyrimidinyl}-2-(4-hydroxyphenyl)-1,3-thiazol-4-yl]phenyl}-2,5-difluorobenzamide] | < 100 nM | < 100 nM | 100 to 1000 nM | 100 to 1000 nM | 100 to 1000 nM | 100 to 1000 nM

More lines, now with the values ahead:

Row | IC50 [1] | IC50 [2] | IC50 [3] | IC50 [4] | IC50 [5] | IC50 [6] | SMILES
7 | < 100 nM | < 100 nM | 100 to 1000 nM | < 100 nM | 100 to 1000 nM | – | CN(C)CCOc1cccc(Nc2nccc(-c3sc(N)nc3-c3cccc(C(=O)Nc4c(F)cccc4F)c3)n2)c1 [Example 76, 3-(2-Amino-5-{2-[(3-{[2-(dimethylamino)ethyl]oxy}phenyl)amino]-4-pyrimidinyl}-1,3-thiazol-4-yl)-N-(2,6-difluorophenyl)benzamide]
8 | < 100 nM | < 100 nM | < 100 nM | 100 to 1000 nM | > 1000 nM | > 1000 nM | CN(C)CCOc1cccc(Nc2nccc(-c3scnc3-c3cccc(NC(=O)c4cc(F)ccc4F)c3)n2)c1 [Example 96, N-[3-(5-{2-[(3-{[2-(Dimethylamino)ethyl]oxy}phenyl)amino]-4-pyrimidinyl}-1,3-thiazol-4-yl)phenyl]-2,5-difluorobenzamide]
9 | < 100 nM | < 100 nM | 100 to 1000 nM | 100 to 1000 nM | > 1000 nM | – | Cc1nc(-c2cccc(NC(=O)c3c(F)cccc3F)c2)c(-c2ccnc(Nc3cccc(OCCN(C)C)c3)n2)s1 [Example 102, N-[3-(5-{2-[(3-{[2-(Dimethylamino)ethyl]oxy}phenyl)amino]-4-pyrimidinyl}-2-methyl-1,3-thiazol-4-yl)phenyl]-2,6-difluorobenzamide]
